# Assay results reported in US20220016101A1 (ACADIA Pharmaceuticals Inc., priority 2018, published 2022).
# Experiments:
# serotonin transporter = serotonin transporter (Homo sapiens, UniProt P31645); assay: Receptor profile: affinity (Ki) at SERT; type: binding; conditions: data on file
# [1] = test system: patients with MDD and an inadequate response to an SSRI or SNRI; conditions: in vivo
# [2] = test system: adults with Parkinson's disease and depression; assay: HAMD-17 total score, open-label study in Parkinson's disease and depression; type: in vivo, human; conditions: Week 8; interim, first 31 patients
# Description: Subjects can receive treatment as either monotherapy or adjunctively if inadequately controlled with SSRI/SNRI monotherapy. A primary endpoint of the study is change from baseline to Week 8 in the Hamilton Depression Scale 17-item (HAMD-17) total score. Secondary endpoints include Clinical Global Impression (CGI) scales (improvement and severity), Scale of Outcomes in PD-Sleep (SCOPA), and quality of life as measured by EuroQol-5 dimensions-5 levels (EQ-5D-5L).
# Subjects were assessed for eligibility and prohibited medications were discontinued. After all screening assessments were completed, eligible subjects returned to the clinic for Baseline evaluation. After Baseline assessments were completed, subjects were enrolled and received the first dose of pimavanserin. Study medication were provided to the subjects to take home with instructions to take the medication approximately the same time each day, and return all used containers and unused study drug as scheduled.
# At approximately 2, 4, and 6 weeks after start of dosing of study drug subjects returned to the clinic for assessments. Safety measures, HAMD-17, C-SSRS (Columbia Suicide Severity Rating Scale), CGI-S(Clinical Global Impression-Severity), and CGI-I (Clinical Global Impression-Improvement) were evaluated at all visits. […]
# The HAMD-17 total score was analyzed using mixed model for repeated measures (MMRM). […]
# Sequence of serotonin transporter (P31645 whole entry): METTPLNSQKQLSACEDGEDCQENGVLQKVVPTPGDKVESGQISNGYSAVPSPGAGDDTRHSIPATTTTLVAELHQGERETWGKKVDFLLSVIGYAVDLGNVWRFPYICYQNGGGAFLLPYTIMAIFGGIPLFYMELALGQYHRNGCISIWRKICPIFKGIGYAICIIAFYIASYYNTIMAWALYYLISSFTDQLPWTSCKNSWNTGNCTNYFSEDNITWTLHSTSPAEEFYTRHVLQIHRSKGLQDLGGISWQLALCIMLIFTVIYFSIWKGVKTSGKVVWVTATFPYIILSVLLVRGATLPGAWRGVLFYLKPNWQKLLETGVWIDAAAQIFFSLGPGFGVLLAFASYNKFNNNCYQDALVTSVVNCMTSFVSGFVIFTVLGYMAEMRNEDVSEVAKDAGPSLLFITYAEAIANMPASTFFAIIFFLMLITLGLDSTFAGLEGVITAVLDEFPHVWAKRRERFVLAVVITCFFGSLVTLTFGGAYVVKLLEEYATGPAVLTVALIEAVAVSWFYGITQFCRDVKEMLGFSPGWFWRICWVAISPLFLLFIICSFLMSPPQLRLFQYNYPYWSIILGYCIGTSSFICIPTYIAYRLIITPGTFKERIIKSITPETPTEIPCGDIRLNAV
smiles,measurement,setting,value
"CC(C)COc1ccc(CNC(=O)N(Cc2ccc(F)cc2)C2CCN(C)CC2)cc1 [pimavanserin, N-(4-Fluorophenylmethyl)-N-(1-methylpiperidin-4-yl)-N′-(4-(2-methylpropyloxy)phenylmethyl)carbamide]",Ki,serotonin transporter,> 1000 nM
same,deaths reported in the study,[1],no deaths
same,patients reaching remission (HAMD-17≤7),[2],35.5%
same,patients with ≥50% improvement in the HAMD-17,[2],45.2%
